Test results as given in ChEMBL document CHEMBL3988442, “University of Dundee, Small-Polar-MMV Screening Library” (2021).

Key:
[1] = microbe, parasite or virus in culture; details: Mycobacterium tuberculosis, 72 h, read-out: pIC50 (converted)
[2] = microbe, parasite or virus in culture; details: Mycobacterium tuberculosis, 96 h, read-out: pIC50 (converted)

Structure (SMILES) | IC50 [1] | IC50 [2]
COC(=O)[C@@H]1C[C@@H](O)CN1Cc1ncc(C(C)(C)C)o1 | > 501 µM | > 501 µM
Cc1ccnc(NCCS(=O)(=O)NCC2CCC2)c1 | 265 µM | 117 µM
c1cn(C2CCNCC2)nn1 | 354 µM | 409 µM
CCCC(C#N)NC(=O)c1ccn(-c2ccccc2)n1 (stereo not drawn) | 294 µM | > 501 µM
COc1ccc(C(=O)NC2=NCCS2)c(O)c1 | 456 µM | 185 µM
NCCS(=O)(=O)N1CCc2ccccc21 | 149 µM | 240 µM
CN(C)C(=O)CSc1nnc(C(F)(F)F)s1 | 487 µM | 305 µM
CC(C)c1ccc(S(=O)(=O)C(C)C(N)=O)cc1 (stereo not drawn) | 284 µM | 190 µM
CC1COC2(CCN(C(=O)c3ccc(Cl)s3)CC2)O1 (stereo not drawn) | 25.7 µM | 45.1 µM
CCOC(=O)CCC(=O)c1ccc2c(c1)OCCO2 | 209 µM | 199 µM
CC(C)N(Cc1ccccn1)C(=O)c1cc(Cl)c[nH]1 | > 501 µM | > 501 µM
COCc1ccccc1CNC(=O)c1nc(C)ns1 | 488 µM | 145 µM
CCC(CO)(CO)NCc1csc(-c2cccs2)n1 | > 501 µM | > 501 µM
NS(=O)(=O)C1CCN(Cc2ccc(Br)c(F)c2)C1 (stereo not drawn) | 171 µM | > 501 µM
CC(C)COc1cncc(NC(C)CO)n1 (stereo not drawn) | > 501 µM | > 501 µM
CCC(C(=O)Nc1cc2c(cc1C)OCO2)N(C)C (stereo not drawn) | > 501 µM | > 501 µM
CC(C)(C)OC(=O)N1CCN(C2CCC(N)CC2)CC1 (stereo not drawn) | > 501 µM | > 501 µM
O=C(NCCc1ccc(F)c(F)c1)N1CCCC(O)C1 (stereo not drawn) | > 501 µM | > 501 µM
Cc1cc(OC(F)F)c(C2NC(=O)CN2C)cc1C (stereo not drawn) | > 501 µM | > 501 µM
CC(O)(CNc1ncccc1F)C1CCCC1 (stereo not drawn) | 142 µM | 262 µM
Cc1cccc(NCCC(=O)NC2CCCC2)n1 | 122 µM | > 501 µM
COc1cccc(S(=O)(=O)CCN2CCCC2CO)c1 (stereo not drawn) | 462 µM | 141 µM
NCCc1nsc2ccccc12 | 129 µM | 189 µM
O=C(NCc1[nH]ncc1Br)Nc1nc2c(s1)COCC2 | 328 µM | > 501 µM
COc1ccc(CCN)c(Cl)c1OC | 265 µM | > 501 µM
CC1CN(C(=O)c2cnsn2)c2cccc(Cl)c2O1 (stereo not drawn) | 67.6 µM | > 501 µM
O=C(CNc1cccc(CO)c1)NCc1ccc(Cl)s1 | 134 µM | > 501 µM

Structure (SMILES) | IC50 [1] | IC50 [2]
OC(CN1CCCSCC1)c1ccc(F)cc1 (stereo not drawn) | > 501 µM | > 501 µM
CN1CCC(NC(=O)c2coc(Br)c2)CC1=O (stereo not drawn) | > 501 µM | > 501 µM
COCCOCc1cccc(NC(=O)NC(C)C)c1 | > 501 µM | > 501 µM
O=C(Cc1cccnc1)NCCNc1cccc(Br)c1 | 143 µM | > 501 µM
CC(C)NC(=O)Nc1cc(C(F)(F)F)c[nH]c1=O | 92.8 µM | 109 µM
CC(C)Nc1ncccc1C(=O)Nc1nncs1 | > 501 µM | > 501 µM
CC(CO)Sc1ccc(S(=O)(=O)C(F)F)cc1 (stereo not drawn) | 459 µM | 158 µM
CCOCCN1CCN(Cc2nnc(OCC)s2)CC1 | > 501 µM | > 501 µM
c1snnc1CNCC1COC2(CCCCC2)O1 (stereo not drawn) | > 501 µM | 268 µM
CC(C)c1cccc(NC(=O)CN2CCC(O)CC2)c1 | 116 µM | 359 µM
OCc1cnc2c(F)cccc2c1 | > 501 µM | > 501 µM
O=C(Nc1nncs1)c1ccccn1 | 36.5 µM | 139 µM
OCC1CCN(CCc2ccccc2)C1 (stereo not drawn) | 393 µM | 243 µM
OC(CN1CCn2ccnc2C1)c1cccc(F)c1 (stereo not drawn) | > 501 µM | > 501 µM
COc1cc(CCN)ccc1C | 303 µM | 277 µM
CCc1cc(C)c(C(=O)Nc2ccc(C(N)=O)nc2)o1 | 56.5 µM | 69.6 µM
CN(CCn1cnnc1)c1ccc2ccc(F)cc2n1 | 212 µM | 259 µM
O=C(NC1CC1)c1cccc(CNc2ccccn2)c1 | 220 µM | > 501 µM
OCCCN1CCCN(Cc2ccc(F)cc2)CC1 | 186 µM | > 501 µM
CCOCC(C)Nc1ccc(C)c(S(C)(=O)=O)c1 (stereo not drawn) | 188 µM | 221 µM
CCNc1cccc(OC)c1 | 109 µM | 144 µM
CC(C)CSCCSc1nnc(N)[nH]1 | 240 µM | > 501 µM
COc1ccc(NS(=O)(=O)N(C)C)c(Br)c1 | > 501 µM | > 501 µM
CS(=O)(=O)NCC(=O)Nc1ccc(-n2cccn2)cc1 | > 501 µM | > 501 µM
CCCS(=O)(=O)N(C)Cc1ccc(OCC)cn1 | 148 µM | 280 µM
COCC(=O)NCCc1cc(Cl)c2c(c1)OCCO2 | 216 µM | 176 µM
CCOc1ccc(Cl)cc1CCNS(=O)(=O)N(C)C | 245 µM | 282 µM

Structure (SMILES) | IC50 [1] | IC50 [2]
O=C(CCn1cccn1)N1CCCCCC1 | 110 µM | > 501 µM
CCS(=O)(=O)N(C)CCCNc1ccc(C)c(C#N)n1 | 106 µM | 84.2 µM
CCC1(CC)CN(C(=O)NCCC(C)C)CCS1(=O)=O | > 501 µM | 407 µM
NCCc1cccc2cc[nH]c12 | 177 µM | 211 µM
CNC(=O)CN1CCC(OCCCc2ccccc2)C1 (stereo not drawn) | 161 µM | > 501 µM
O=C(CCN1CCCC1CO)NCc1ccccc1Cl (stereo not drawn) | 460 µM | > 501 µM
COCCC(C)NC(=O)Nc1ccc(C#N)cc1 (stereo not drawn) | 232 µM | 159 µM
Cc1cccc(NCCCNC(=O)c2cccs2)n1 | > 501 µM | > 501 µM
O=C(CNc1ccc(Br)cc1)NCc1ncc[nH]1 | 228 µM | > 501 µM
O=C(c1cc(Br)c[nH]1)N1CCN2CCCCC2C1 (stereo not drawn) | 232 µM | > 501 µM
CC1Cc2ccccc2N1C(=O)c1ccccn1 (stereo not drawn) | > 501 µM | > 501 µM
Cc1n[nH]cc1CNCCNc1ncc(Cl)cc1Cl | 82.1 µM | > 501 µM
CC(C)Cn1ccnc1CNc1ncccc1F | 307 µM | 382 µM
COc1ccc(S(=O)(=O)N2CC(NCC3CC3)C2)cc1 | 209 µM | > 501 µM
COC(=O)CCCC(=O)N1CCC2(CCCC2)C1 | 180 µM | 110 µM
OC[C@@H]1CCCN1Cc1cccc(F)c1F | > 501 µM | > 501 µM
Cc1ccc(C(N)c2ccccn2)cc1 (stereo not drawn) | 90.7 µM | 191 µM
COc1cccc([C@@H]2C[C@H]2N)c1 | 163 µM | > 501 µM
O=C(c1ccco1)N1CCCN(Cc2cscn2)CC1 | > 501 µM | > 501 µM
O=S(=O)(CCNc1ccccn1)NCC1CCC1 | 307 µM | 213 µM
CC(C)S(=O)(=O)CCCn1nnc(-c2ccsc2)n1 | 56.7 µM | 94.9 µM
NC(=O)C(NC(=O)c1sccc1Br)c1ccccc1 (stereo not drawn) | > 501 µM | > 501 µM
CN(CCn1cccn1)c1cc(Br)ccn1 | 190 µM | 366 µM
Brc1ccc2c(c1)OCCNC2 | > 501 µM | > 501 µM
Cn1ccsc1=NC(=O)c1ccc(OCC(N)=O)cc1 | > 501 µM | > 501 µM
